Results as given in patent publication US20230357179A1, “RAF KINASE INHIBITORS AND METHODS OF USE THEREOF” (Deciphera Pharmaceuticals, LLC, priority 2021, published 2023).

Assays:
B-Raf kinase = biological target: T1, B-Raf kinase (Homo sapiens, UniProt P15056); experiment: Biochemical assay for B-Raf.1 (coupled pyruvate kinase/lactate dehydrogenase); conditions: read-out: BRAF.1 IC50
T1 construct: GST (N); purchased Sigma
Method in brief: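 Reaction rates over the 4–5 h window of a continuous 6 h, 30 °C read were converted to percent inhibition and fitted for IC50. B-Raf (0.13 nM) phosphorylated 30.1 nM MEK with 1 mM ATP; ADP coupled via PK/LDH to NADH loss at 340 nm, 1% DMSO final.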

B-Raf (V600E) kinase = biological target: T2, B-Raf (V600E) kinase (Homo sapiens, UniProt P15056, V600E); experiment: Biochemical assay for B-Raf (V600E).1 (coupled pyruvate kinase/lactate dehydrogenase); conditions: read-out: BRAF V600E.1 IC50
T2 construct: B-Raf (V600E) residues 416-766 with a; GST (N); purchased SignalChem
Method in brief: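 IC50 came from four-parameter sigmoidal fits of percent inhibition, using reaction rates over 3-4 h. Continuous A340 reading (6 h, 30 °C) of a pyruvate kinase/lactate dehydrogenase-coupled reaction: B-Raf V600E 0.03 nM, MEK 30.1 nM, ATP 1 mM, Tris pH 7.5, 1% DMSO.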

A-Raf kinase = biological target: T3, A-Raf kinase (Homo sapiens, UniProt P10398, Y301D/Y302D); experiment: Biochemical assay for A-Raf.1 (coupled pyruvate kinase/lactate dehydrogenase); conditions: read-out: ARAF.1 IC50
T3 construct: purchased Sigma
Method in brief: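 IC50 values came from four-parameter sigmoidal fits of percent inhibition, using rates over the 4 to 5 h window of continuous A340 readings (6 h, 30° C). The coupled PK/LDH system tracked NADH oxidation during 5.55 nM A-Raf activity on 30.1 nM MEK at 1 mM ATP, buffer pH 7.5.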

H2405 cells = experiment: H2405 cell proliferation assay (1), resazurin, 96-well; type: cell-based; conditions: Homo sapiens, NCI-H2405, inhibition of cell proliferation
Description: H2405 Cell Proliferation Assay (1)
H2405 cells (catalog #CRL-5944) are obtained from the American Type Culture Collect (ATTC, Manassas, VA). Briefly, cells were grown in RPMI 1640 supplemented with 5% characterized fetal bovine serum (Invitrogen, Carlsbad, CA) and 1% Penicillin/Streptomycin/L-Glutamine at 37° C., 5% CO2, and 95% humidity. Cells are expanded until reaching 70-95% confluency at which point they are subcultured or harvested for assay use. A serial dilution of test compound is dispensed into a 96-well black clear bottom plate in triplicate. Three thousand cells are added per well in 200 μL complete growth medium in the 96-well plate. Plates are incubated for 67-72 hours at 37° C., 5% CO2, and 95% humidity. At the end of the incubation, 40 μL of a 440 μM solution of resazurin (Sigma, St. Louis, MO) in PBS is added to each well of the plate and plates are incubated for an additional 5-6 hours at 37° C., 5% CO2, and 95% humidity. Plates are read on a Synergy2 or equivalent reader (Biotek, Winooski VT) using an excitation of 540 nm and an emission of 600 nm. Data is analyzed using Prism software (GraphPad, San Diego, CA) to calculate IC50 values.

T3 sequence (P10398 with tags, fused parts or gaps Y301D/Y302D): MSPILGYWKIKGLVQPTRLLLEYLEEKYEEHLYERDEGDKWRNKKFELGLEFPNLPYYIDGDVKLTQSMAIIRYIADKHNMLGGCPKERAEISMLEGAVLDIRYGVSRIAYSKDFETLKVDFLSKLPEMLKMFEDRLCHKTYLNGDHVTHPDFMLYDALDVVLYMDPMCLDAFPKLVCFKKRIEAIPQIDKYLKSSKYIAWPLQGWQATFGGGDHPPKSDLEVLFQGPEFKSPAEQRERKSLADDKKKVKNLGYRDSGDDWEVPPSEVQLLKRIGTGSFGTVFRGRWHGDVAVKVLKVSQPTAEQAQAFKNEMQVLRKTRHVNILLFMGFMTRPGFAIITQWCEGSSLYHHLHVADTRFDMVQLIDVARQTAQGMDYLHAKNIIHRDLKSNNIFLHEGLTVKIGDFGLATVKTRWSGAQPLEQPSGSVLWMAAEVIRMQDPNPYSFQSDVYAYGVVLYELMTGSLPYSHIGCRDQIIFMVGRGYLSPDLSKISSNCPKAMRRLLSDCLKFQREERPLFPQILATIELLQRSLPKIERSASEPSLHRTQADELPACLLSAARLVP
T1 sequence (P15056 416-766): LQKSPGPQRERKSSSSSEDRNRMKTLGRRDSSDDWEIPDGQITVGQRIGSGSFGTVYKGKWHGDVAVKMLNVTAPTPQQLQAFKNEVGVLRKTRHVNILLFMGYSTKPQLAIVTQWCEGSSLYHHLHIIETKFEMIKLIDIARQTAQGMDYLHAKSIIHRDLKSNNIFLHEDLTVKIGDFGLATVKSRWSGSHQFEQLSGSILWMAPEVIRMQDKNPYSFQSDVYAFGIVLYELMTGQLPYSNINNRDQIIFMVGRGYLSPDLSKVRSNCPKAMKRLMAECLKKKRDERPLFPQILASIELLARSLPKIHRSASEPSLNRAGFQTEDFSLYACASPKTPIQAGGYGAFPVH
T2 sequence (P15056 416-766 V600E): as the sequence (P15056 416-766) above, with V185E counted along it

| SMILES | IC50 (B-Raf kinase) [nM] | IC50 (B-Raf (V600E) kinase) [nM] | IC50 (A-Raf kinase) [nM] | IC50 (H2405 cells) [nM] |
| --- | --- | --- | --- | --- |
| COC(=O)Nc1cc(-c2cc(-c3cc(NC(=O)NC[C@H]4CCO4)c(F)cc3C)cc(OCCO)n2)ccn1 [Example 96] | 500 to 1000 | ≤ 100 | > 1000 | 1000 to 10000 |
| Cc1cc(F)c(NC(=O)NC2CC3(COC3)C2)cc1-c1cc(OCCO)nc(-c2ccnc3[nH]ncc23)c1 [Example 101] | 100 to 500 | ≤ 100 | > 1000 | 1000 to 10000 |
| COC(C)(C)CCNC(=O)Nc1cc(-c2ccnc(-c3ccnc(NC(=O)C4CC4)c3)n2)c(C)cc1F [Example 108] | ≤ 100 | ≤ 100 | 100 to 500 | 100 to 500 |
| COC(=O)Nc1cc(-c2cc(-c3cc(NC(=O)NCCC(C)(C)C)cnc3C)ccn2)ccn1 [Example 109] | ≤ 100 | ≤ 100 | > 1000 | 1000 to 10000 |
| Cc1cc(F)c(NC(=O)NCCC2(C)COC2)cc1-c1cc(OCCO)nc(-c2ccnc3[nH]ncc23)c1 [Example 110] | 100 to 500 | ≤ 100 | > 1000 | 1000 to 10000 |
| Cc1cc(F)c(NC(=O)NCC23CC(F)(C2)C3)cc1-c1cc(OCCO)nc(-c2ccnc3[nH]ncc23)c1 [Example 111] | ≤ 100 | ≤ 100 | > 1000 | 1000 to 10000 |
| Cc1ncc(NC(=O)NCCC2(C)CC2)cc1-c1cc(OCCO)nc(-c2ccnc3c2CC(=O)N3)c1 [Example 112] | ≤ 100 | ≤ 100 | > 1000 | 1000 to 10000 |
| Cc1ncc(NC(=O)NCCC2(C)CC2)cc1-c1cc(OCCO)nc(-c2ccnc(NC(=O)C3CC3)c2)c1 [Example 113] | ≤ 100 | ≤ 100 | 500 to 1000 | 100 to 500 |
| Cc1cc(F)c(NC(=O)NCCC(C)(C)F)cc1-c1nccc(-c2ccnc(NC(=O)C3CC3)c2)n1 [Example 114] | ≤ 100 | ≤ 100 | 100 to 500 | 500 to 1000 |
| COC(=O)Nc1cc(-c2cc(-c3cc(NC(=O)NCCC(C)C)c(F)cc3C)cc(OCCO)n2)ccn1 [Example 115] | ≤ 100 | ≤ 100 | > 1000 | 500 to 1000 |
| COC1(CCNC(=O)Nc2cc(-c3ccnc(-c4ccnc(NC(=O)C5CC5)c4)n3)c(C)cc2F)CC1 [Example 117] | ≤ 100 | ≤ 100 | 100 to 500 | 100 to 500 |
| Cc1ncc(NC(=O)NCCC2(C)CC2)cc1-c1ccnc(-c2ccnc(NC(=O)C3CC3)c2)c1 [Example 118] | ≤ 100 | ≤ 100 | > 1000 | 500 to 1000 |
| CNC(=O)c1cc(-c2cnnc(-c3cc(NC(=O)NCCC(C)(C)C)c(F)cc3C)c2)ccn1 [Example 119] | 100 to 500 | ≤ 100 | > 1000 | 1000 to 10000 |
| Cc1ncc(NC(=O)NCCC(C)(C)C)cc1-c1cc(-c2ccnc(NC(=O)C3CC3)c2)cnn1 [Example 120] | ≤ 100 | ≤ 100 | > 1000 | 1000 to 10000 |
| COC(C)(C)CCNC(=O)Nc1cnc(C)c(-c2cc(-c3ccnc(NC(=O)C4CC4)c3)cnn2)c1 [Example 121] | 100 to 500 | ≤ 100 | > 1000 | 1000 to 10000 |
| COC(=O)Nc1nccc(-c2cc(OCCO)cc(-c3cc(NC(=O)NCCC4(C)CC4)c(F)cc3C)c2)n1 [Example 122] | ≤ 100 | ≤ 100 | > 1000 | 500 to 1000 |
| CNC(=O)c1cc(-c2cnnc(-c3cc(NC(=O)NCCC(C)(C)OC)c(F)cc3C)c2)ccn1 [Example 123] | > 1000 | ≤ 100 | > 1000 | 1000 to 10000 |
| CCC(C)CCNC(=O)Nc1cnc(C)c(-c2ccnc(-c3ccnc(NC(=O)C4CC4)c3)c2)c1 (stereo not drawn) [Example 124] | ≤ 100 | ≤ 100 | > 1000 | 1000 to 10000 |
| COC(=O)Nc1cc(-c2cc(-c3cc(NC(=O)NCCN4CCC4)c(F)cc3C)cc(OCCO)n2)ccn1 [Example 125] | > 1000 | 100 to 500 | > 1000 | 1000 to 10000 |
| Cc1ncc(NC(=O)NC2CC(C)(C)C2)cc1-c1cc(OCCO)nc(-c2ccnc(NC(=O)C3CC3)c2)c1 [Example 126] | ≤ 100 | ≤ 100 | 500 to 1000 | 500 to 1000 |
| Cc1cc(F)c(NC(=O)NCCC(C)(C)F)cc1-c1cccc(-c2cc(NC(=O)C3CC3)ncn2)c1 [Example 127] | ≤ 100 | ≤ 100 | 100 to 500 | 1000 to 10000 |
| Cc1cc(F)c(NC(=O)NCCC(C)(C)F)cc1-c1ccnc(-c2ccnc(NC(=O)C3CC3)c2)n1 [Example 128] | ≤ 100 | ≤ 100 | 100 to 500 | 1000 to 10000 |
| COC(=O)Nc1cc(-c2nccc(-c3cc(NC(=O)NCCC(C)(C)OC)c(F)cc3C)n2)ccn1 [Example 129] | ≤ 100 | ≤ 100 | > 1000 | 1000 to 10000 |

Now from value to molecule:

| IC50 (B-Raf kinase) [nM] | IC50 (B-Raf (V600E) kinase) [nM] | IC50 (A-Raf kinase) [nM] | IC50 (H2405 cells) [nM] | SMILES |
| --- | --- | --- | --- | --- |
| ≤ 100 | ≤ 100 | 100 to 500 |  | Cc1ccc(NC(=O)Nc2cccc(C(F)(F)F)c2)cc1-c1cc(OCCO)nc(N2CCOCC2)c1 [Example 3, 1-(3-(2-(2-hydroxyethoxy)-6-morpholinopyridin-4-yl)-4-methylphenyl)-3-(3-(trifluoromethyl)phenyl)urea] |
| ≤ 100 | ≤ 100 | > 1000 | 100 to 500 | Cc1ccc(NC(=O)NCCC(C)(C)C)cc1-c1cc(N2CCOCC2)nc(N2CCOCC2)c1 [Example 4] |
| ≤ 100 | ≤ 100 | > 1000 | ≤ 100 | Cc1cc(F)c(NC(=O)NCCC(C)(C)C)cc1-c1cc(OCCO)nc(C2=CCOCC2)c1 [Example 7] |
| ≤ 100 | ≤ 100 | > 1000 | 500 to 1000 | Cc1cc(F)c(NC(=O)NCCC(C)(C)C)cc1-c1cc(N2CCOCC2)nc(N2CCOCC2)c1 [Example 10] |
| ≤ 100 | ≤ 100 | > 1000 | 100 to 500 | Cc1cc(F)c(NC(=O)NCCC(C)(C)F)cc1-c1cc(OCCO)nc(-c2ccnc3[nH]ncc23)c1 [Example 94] |
| ≤ 100 | ≤ 100 | > 1000 | 500 to 1000 | Cc1cc(F)c(NC(=O)NCCC(C)(C)F)cc1-c1cc(OCCO)nc(-c2ccnc3[nH]ccc23)c1 [Example 97] |
| ≤ 100 | ≤ 100 | 500 to 1000 | 100 to 500 | Cc1cc(F)c(NC(=O)NCC(C)C)cc1-c1cc(OCCO)nc(-c2ccnc(NC(=O)C3CC3)c2)c1 [Example 99] |
| ≤ 100 | ≤ 100 | > 1000 | 1000 to 10000 | Cc1cc(F)c(NC(=O)NCCC(C)(C)F)cc1-c1cccc(-c2ccnc3[nH]ncc23)c1 [Example 100] |
| ≤ 100 | ≤ 100 | > 1000 | 1000 to 10000 | Cc1ncc(NC(=O)NC[C@H](O)C(C)(C)C)cc1-c1ccnc(-c2ccnc(NC(=O)C3CC3)c2)c1 [Example 102] |
| ≤ 100 | ≤ 100 | > 1000 | 1000 to 10000 | COC(=O)Nc1cc(-c2cc(-c3cc(NC(=O)NCCC4(C)CC4)cnc3C)ccn2)ccn1 [Example 103] |
| ≤ 100 | ≤ 100 | 100 to 500 | 100 to 500 | COC1(CCNC(=O)Nc2cc(-c3cccc(-c4cc(NC(=O)C5CC5)ncn4)c3)c(C)cc2F)CC1 [Example 104] |
| ≤ 100 | ≤ 100 | 100 to 500 | 500 to 1000 | Cc1cc(F)c(NC(=O)NCCC(F)F)cc1-c1cc(OCCO)nc(-c2ccnc(NC(=O)C3CC3)c2)c1 [Example 105] |
| ≤ 100 | ≤ 100 | > 1000 | 100 to 500 | Cc1cc(F)c(NC(=O)NCCC(C)C)cc1-c1cc(OCCO)nc(-c2ccnc(NC(=O)C3CC3)c2)c1 [Example 106] |
| ≤ 100 | ≤ 100 | 500 to 1000 | 100 to 500 | Cc1ncc(NC(=O)NCCC2(C)CC2)cc1-c1ccnc(-c2ccnc(NC(=O)C3CC3)c2)n1 [Example 107] |
